The values below come from patent US10857105B2, “Compounds and compositions for intracellular delivery of therapeutic agents” (ModernaTX, Inc., priority 2017, dated 2020).

Series [1] is described as follows: Particle size and polydispersity index of nanoparticle compositions (Zetasizer Nano ZS). Format: physicochemical. In a few lines: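 Size and PDI measured by Zetasizer Nano ZS in 1×PBS (zeta potential in 15 mM PBS). Lipid nanoparticles contained test ionizable lipid:DSPC:cholesterol:PEG-DMG at 50:10:38.5:1.5 mol % with N1-methyl-pseudouridine mRNA encoding luciferase or hEPO.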

Series [2] in a line: Encapsulation efficiency of RNA in nanoparticle compositions (RIBOGREEN assay). In kind it is physicochemical. In short, it runs like this: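 Lipid nanoparticles (ionisable lipid:DSPC:cholesterol:PEG-DMG 50:10:38.5:1.5 mol %) carrying N1-methylpseudouridine luciferase or hEPO mRNA diluted to about 5 μg/mL in TE, pH 7.5, with or without 2% Triton X-100, 15 min at 37° C. RiboGreen fluorescence (ex ~480, em ~520 nm) blank-subtracted; free RNA = intact/disrupted signal.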

Series [3] relates to luciferase (Luc) mRNA. Briefly: Luciferase expression after intramuscular administration to mice. In kind it is in vivo. The settings on record: intramuscular; for Total flux 6 hours after intramuscular administration, 0.01 mpk Dose: Luc mRNA; for Novel lipid/MC3 expression ratio, i.m. Luc: luciferase, 6 hr. time point, relative to MC3 formulation. From the text:
The numbers 1-7 in this figure correspond to MC3, Compounds 168-170, and 173-175 respectively.
FIGS. 18A and 18B show the results of luciferase expression measured upon intramuscular administration of various nanoparticle compositions to CD-1 mice at 0.01 mpk. FIG. 18A is a bar graph showing total flux at 6 hr after administration. The numbers above each bar indicate the expression ratio relative to MC3. […] Numbers 1-11 in the Figures refer to compositions containing the following: 1: MC3, 2: Compound 143, 3: Compound 49; 4: Compound 113; 5: Compound 61; 6: Compound 72; 7: Compound 75; 8: Compound 71; 9: Compound 128; 10: Compound 156; 11: Compound 157.
The numbers 1-9 in this figure correspond to MC3, and Compounds 178, 181, 182, 218, 198, 200, 233, and 239, respectively.
The total flux (measured by area under the curve, AUC) induced by administration of a formulation including a given lipid relative to that induced by administration of a formulation including MC3 was also measured for several lipids.
Sample formulations including modified luciferase (Luc) mRNA prepared and administered intramuscularly and the resulting expression and immunogenicity were evaluated simultaneously. Formulations including compounds according to Formula (I), (IA), (IB), (II), (IIa), (IIb), (IIc), (IId), (IIe), (IIf), (IIg), or (III) were prepared and administered at dose of and 0.01 mpk.

The subject of another series is modified luciferase. Briefly: Luciferase expression in liver, lung, spleen and femur 6 hours after intravenous administration to mice. Format: in vivo. To be noted: 6 hours after intravenous 0.5 mpk, mice. In a few lines: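 Nanoparticle formulations of the modified luciferase were given intravenously to mice (n=3) at 0.5 mpk. Bioluminescence was measured after 6 hours as total light flux. Standard MC3 formulation and PBS run as controls.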

In series [4] the test system is luciferase (Luc) mRNA. Briefly: Luciferase expression (whole body bioluminescence) after intravenous administration to mice. In kind it is in vivo. The settings on record: for Novel lipid/MC3 expression ratio, i.v.: intravenous, luciferase, 6 hr. time point, relative to MC3 formulation. In a few lines: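 Mice (n=6) received lipid nanoparticle formulations carrying luciferase mRNA intravenously at 0.5 mg/kg. Whole-body bioluminescence was measured at 3, 6 and 24 h. Total flux was taken as area under the curve and expressed relative to a standard MC3 formulation.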

The mark [5] stands for this setting: Table 1A, lipid:DSPC:cholesterol:PEG-DMG 50:10:38.5:1.5 mol %.
Setting [6] is: Table 1B, formulated with hEPO mRNA.
Where [7] appears, read: Table 1D, compositions for subcutaneous administration, # formulated with hEPO mRNA.
[8] abbreviates: Table 1E, compositions for subcutaneous administration.

In the case of `CCCC/C=C\CCC(CC/C=C\CCCC)OC(=O)CCCCCCCN(CCO)CCCCCCCC(=O)OCCCCCCCCC` [Compound 60, (5Z,12Z)-Heptadeca-5,12-dien-9-yl 8-((2-hydroxyethyl)(8-(nonyloxy)-8-oxooctyl)amino)octanoate], the Size in series [1] (setting [5]) came out at 95.1 nm; in series [1] (setting [6]), 88.9 nm; in series [1] (setting [7]), 87.4 nm; in series [1] (setting [8]), 93.3 nm. The EE in series [2] (setting [6]) is listed as 95.20%. The “Total flux 6 hours after intramuscular administration, 0.01 mpk Dose” value (“Total flux 6 hours” below) with luciferase (Luc) mRNA [3] is recorded as 9.48E+07 p/s. The “Total Flux, Liver” value in the series on modified luciferase is 1.54E+09. In addition, in the series with modified luciferase, the “Total Flux, Lung” value was found to be 6.25E+06. For the same compound, the “Total Flux, Spleen” value in the series on modified luciferase is reported as 7.12E+06.

Consider `CCCCCCCCCOC(=O)CCCCCCCN(CCCCCCCC(=O)OC(CCCCCCCC)CCCCCCCC)CC(O)CO` (centres unmarked) [Compound 69, Heptadecan-9-yl 8-((2,3-dihydroxypropyl)(8-(nonyloxy)-8-oxooctyl)amino)octanoate], for which the Size in series [1] (setting [5]) was determined as 77.2 nm. The same compound returned a Size in series [1] (setting [8]) of 71.8 nm. The “Novel lipid/MC3 expression ratio, i.v.” value in the series on luciferase (Luc) mRNA [4] was 0.30. For the same compound, in the series on luciferase (Luc) mRNA [3], the “Total flux 6 hours” value was determined as 8.83E+06 p/s and the “Novel lipid/MC3 expression ratio, i.m. Luc” value stood at 0.27. In the series with modified luciferase, the “Total Flux, Liver” value is recorded as 2.24E+08; the “Total Flux, Lung” value was 7.34E+05; the “Total Flux, Spleen” value is 2.54E+06.

The compound `CCCCCCCCC(CCCCCCCC)OC(=O)CCCCCCCN(CCO)CCCC(=O)OC(CCCCC)CCCCCCCC` (centres unmarked) [Compound 71, Heptadecan-9-yl 8-((2-hydroxyethyl)(4-oxo-4-(tetradecan-6-yloxy)butyl)amino)octanoate] gave a Size in series [1] (setting [5]) of 71 nm. This compound showed an EE in series [2] (setting [5]) of 97.54%. Besides, the “Novel lipid/MC3 expression ratio, i.v.” value in the series on luciferase (Luc) mRNA [4] was found to be 0.42. The “Novel lipid/MC3 expression ratio, i.m. Luc” value in the series on luciferase (Luc) mRNA [3] is recorded as 0.08. Besides, in the series on modified luciferase, the “Total Flux, Liver” value was found to be 7.93E+08; the “Total Flux, Lung” value was 4.86E+06; the “Total Flux, Spleen” value amounted to 8.04E+06.

`CCCCCCCCCOC(=O)CCCCCCCN(CCCCCCCC(=O)OC(CCCCCCCC)CCCCCCCC)CCCNC(=S)N(C)C` [Compound 111, Heptadecan-9-yl 8-((3-(3,3-dimethylthioureido)propyl)(8-(nonyloxy)-8-oxooctyl)amino)octanoate]: the Size in series [1] (setting [5]) is 116.7 nm; in series [1] (setting [6]), 93.3 nm; in series [1] (setting [7]), 94.5 nm; in series [1] (setting [8]), 88.9 nm. In series [2] (setting [6]), this compound displayed an EE of 91.23%. Further, the “Total flux 6 hours” value with luciferase (Luc) mRNA [3] was 1.58E+08 p/s. Moreover, the “Total Flux, Liver” value with modified luciferase is given as 4.83E+09. Besides, in the series with modified luciferase, the “Total Flux, Lung” value came to 2.57E+07. The “Total Flux, Spleen” value in the series with modified luciferase turned out to be 2.44E+08.

For the compound `CCCCCCCCC(C)OC(=O)CCCCCN(CCO)CCCCCCCC(=O)OC(CCCCCCCC)CCCCCCCC` (centres unmarked) [Compound 122, Heptadecan-9-yl 8-((6-(decan-2-yloxy)-6-oxohexyl)(2-hydroxyethyl)amino)octanoate], in series [1] (setting [5]), the Size turned out to be 69.3 nm. Moreover, the Size in series [1] (setting [6]) was determined as 70.2 nm. In series [1] (Table 1C, compositions for subcutaneous administration), this compound came in with a Size of 80.2 nm. In addition, in series [2] (setting [6]), the EE is 96.27%. Moreover, the “Total flux 6 hours” value with luciferase (Luc) mRNA [3] is 9.19E+07 p/s. Besides, in the series with modified luciferase, the “Total Flux, Liver” value is on record as 2.63E+09; the “Total Flux, Lung” value is recorded as 2.77E+07; the “Total Flux, Spleen” value was found to be 1.56E+07.

Regarding `CCCCCCCCCOC(=O)CCCCCCCN(CCCCCCCC(=O)OC(CCCCCCCC)CCCCCCCC)C(CO)CO` [Compound 156, Heptadecan-9-yl 8-((1,3-dihydroxypropan-2-yl)(8-(nonyloxy)-8-oxooctyl)amino)octanoate], the Size in series [1] (setting [5]) is 68.1 nm. This compound also came in with an AUC in the series on luciferase (Luc) mRNA [4] (intravenous administration (Table 3D)) of 1.170E+011 p/s*h. In the series with luciferase (Luc) mRNA [4], the “Novel lipid/MC3 expression ratio, i.v.” value turned out to be 0.60. For the same compound, in the series with luciferase (Luc) mRNA [3], the “Novel lipid/MC3 expression ratio, i.m. Luc” value is 0.06. Besides, in the series on modified luciferase, the “Total Flux, Liver” value is reported as 6.51E+08; the “Total Flux, Lung” value came to 1.92E+06; the “Total Flux, Spleen” value came out at 1.82E+07.

In turn, `CCCCCCCCCOC(=O)CCCCCCCN(CCCCCCCC(=O)OC(CCCCCCCC)CCCCCCCC)CCCNc1c(N(C)C)c(=O)c1=O` [Compound 169, Heptadecan-9-yl 8-((3-((2-(dimethylamino)-3,4-dioxocyclobut-1-en-1-yl)amino)propyl)(8-(nonyloxy)-8-oxooctyl)amino)octanoate] yielded a Size in series [1] (setting [5]) of 87.4 nm. In the series with luciferase (Luc) mRNA [4], the “Novel lipid/MC3 expression ratio, i.v.” value stood at 0.11. Also, the “Novel lipid/MC3 expression ratio, i.m. Luc” value in the series with luciferase (Luc) mRNA [3] worked out at 3.3.

Consider `CCCCCCCCCOC(=O)CCCCCCCN(CCCCCCCC(=O)OC(CCCCCCCC)CCCCCCCC)CCCN/C(=C/[N+](=O)[O-])NC` [Compound 170, Heptadecan-9-yl (E)-8-((3-((1-(methylamino)-2-nitrovinyl)amino)propyl)(8-(nonyloxy)-8-oxooctyl)amino)octanoate], for which the Size in series [1] (setting [5]) came to 96.0 nm. Besides, the “Novel lipid/MC3 expression ratio, i.v.” value with luciferase (Luc) mRNA [4] is 0.02. In the series with luciferase (Luc) mRNA [3], the “Novel lipid/MC3 expression ratio, i.m. Luc” value is given as 5.3.

In turn, `CCCCCCCCCOC(=O)CCCCCCCN(CCCCCCCC(=O)OC(CCCCCCCC)CCCCCCCC)CCCNC(=O)OC` [Compound 181, Heptadecan-9-yl 8-((3-((methoxycarbonyl)amino)propyl)(8-(nonyloxy)-8-oxooctyl)amino)octanoate] had a Size in series [1] (setting [5]) of 78.7 nm. For the same compound, the EE in series [2] (setting [5]) came out at 88.9%. Besides, the “Novel lipid/MC3 expression ratio, i.v.” value with luciferase (Luc) mRNA [4] stood at 0.27. Also, the “Novel lipid/MC3 expression ratio, i.m. Luc” value in the series on luciferase (Luc) mRNA [3] came to 0.97.

With `CCCCCCCCCOC(=O)CCCCCCCN(CCCCCCCC(=O)OC(CCCCCCCC)CCCCCCCC)CCCNc1c(NC)c(=O)c1=O` [Compound 182, Heptadecan-9-yl 8-((3-((2-(methylamino)-3,4-dioxocyclobut-1-en-1-yl)amino)propyl)(8-(nonyloxy)-8-oxooctyl)amino)octanoate], the Size in series [1] (setting [5]) is recorded as 84.4 nm. Also, the EE in series [2] (setting [5]) stood at 99.0%. In the series on luciferase (Luc) mRNA [4], the “Novel lipid/MC3 expression ratio, i.v.” value is recorded as 0.66. The “Novel lipid/MC3 expression ratio, i.m. Luc” value with luciferase (Luc) mRNA [3] was found to be 6.80.

In series [1] (setting [5]), `CCCCCCCCCOC(=O)CCCCCCCN(CCCCCCCC(=O)OC(CCCCCCCC)CCCCCCCC)CCCNC(=O)CO` [Compound 198, Heptadecan-9-yl 8-((3-(2-hydroxyacetamido)propyl)(8-(nonyloxy)-8-oxooctyl)amino)octanoate] gave a Size of 84.2 nm. The compound also came in with an EE in series [2] (setting [5]) of 99.5%. In addition, in the series on luciferase (Luc) mRNA [4], the “Novel lipid/MC3 expression ratio, i.v.” value was found to be 0. Moreover, the “Novel lipid/MC3 expression ratio, i.m. Luc” value in the series on luciferase (Luc) mRNA [3] is recorded as 0.52.

With `CCCCCCCCCOC(=O)CCCCCCCN(CCCCCCCC(=O)OC(CCCCCCCC)CCCCCCCC)CCCN/C(=N/S(C)(=O)=O)N(C)C` [Compound 233, Heptadecan-9-yl (Z)-8-((3-(3,3-dimethyl-2-(methylsulfonyl)guanidino)propyl)(8-(nonyloxy)-8-oxooctyl)amino)octanoate], the Size in series [1] (setting [5]) turned out to be 66.9 nm; in series [1] (setting [6]) it was 93.7 nm; in series [1] (setting [7]) it was 87.0 nm. The results for the EE in series [2] (setting [5]) and in series [2] (setting [6]) were 97.81% and 97.6%, respectively. In the series with luciferase (Luc) mRNA [3], the “Novel lipid/MC3 expression ratio, i.m. Luc” value was 0.05.

As for `CCCCCCCCCOC(=O)CCCCCCCN(CCCCCCCC(=O)OC(CCCCCCCC)CCCCCCCC)CCCC(=O)NC` [Compound 239, Heptadecan-9-yl 8-((4-(methylamino)-4-oxobutyl)(8-(nonyloxy)-8-oxooctyl)amino)octanoate], the Size stood at 55.8 nm in series [1] (setting [5]) and 71.3 nm in series [1] (setting [6]). The figures for the EE in series [2] (setting [5]) and in series [2] (setting [6]) were 90.42% and 82.6%, respectively. The “Novel lipid/MC3 expression ratio, i.m. Luc” value in the series with luciferase (Luc) mRNA [3] was found to be 0.01.
